Reference: patent US11214594B2, “Antimicrobial peptide having synergistic antibacterial effect with antibiotics on multidrug resistant bacteria, and use thereof” (priority 2016, dated 2022)
Converted amounts (≈) assume the structure as drawn. Where a SMILES comes first, the peptide text is derived from it. [ ]: non-standard residue; d: D form.

Assays:
E. coli [1] = assay: MIC of antibiotic during combined treatment with antimicrobial peptide; type: cell-based, Escherichia coli; conditions: for Synergistic effect of antibacterial activity with existing antibiotics compared with PapMA-1: E. coli and MDREC1229; for Antibiotic MIC, Erythromycin / Antibiotic MIC, Linezolid / Antibiotic MIC, Vancomycin: E. coli
How it was run: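 Using MH broth, we determined combination MICs by titrating the antibiotic into wells and then repeating under the reverse dilution scheme.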

E. coli [2] = assay: microbe, parasite or virus in culture; type: cell-based, Escherichia coli; conditions: 16 h
How it was run: (§1)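 Peptides were serially diluted twofold in Mueller-Hinton medium and combined 1:1 with bacterial suspensions prepared at 2×10^6 CFU. Readout was the minimal inhibitory concentration, i.e. the lowest concentration with no growth.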

MDREC 1229 = assay: microbe, parasite or virus in culture; type: cell-based, Escherichia coli
How it was run: as §1

MDRST 8009 = type: cell-based, Salmonella typhimurium; conditions: agent alone
Procedure: For the antibacterial activity, a minimal inhibitory concentration (MIC) of a peptide in which fungus bodies were not split in an MH medium with sufficient nutrients was measured.
Specifically, the strains described in the following [Table 2] were purchased and diluted with an MH medium such that the number of bacteria was 2×10^6 colony-forming units (CFUs), 100 μl of each of the diluted strains was aliquoted into a 96-well microtiter plate, and then 100 μl of a peptide solution diluted with the MH medium (solution diluted stepwise at 2: 1) was added to each well.

A. baumannii = assay: MIC of antibiotic during combined treatment with antimicrobial peptide; type: cell-based, Acinetobacter baumannii; conditions: for Antibiotic MIC, Erythromycin / Antibiotic MIC, Linezolid / Antibiotic MIC, Vancomycin: A. baumannii
Procedure: Thereafter, the MIC value of each mixed solution was determined by diluting the antibiotic solution with the MH medium, adding 50 μl of the diluted solution to each well, and performing an experiment even under a reversed condition.

[3] = erythromycin combined with peptide at 1 μg/ml
[4] = erythromycin combined with peptide at 2 μg/ml
[5] = erythromycin combined with peptide at 4 μg/ml
[6] = erythromycin combined with peptide at 6 μg/ml
[7] = erythromycin combined with peptide at 8 μg/ml
[8] = erythromycin combined with peptide at 16 μg/ml
[9] = erythromycin combined with peptide at 32 μg/ml
[10] = erythromycin combined with peptide at 64 μg/ml
[11] = linezolid combined with peptide at 1 μg/ml
[12] = linezolid combined with peptide at 2 μg/ml
[13] = linezolid combined with peptide at 4 μg/ml
[14] = linezolid combined with peptide at 6 μg/ml
[15] = linezolid combined with peptide at 8 μg/ml
[16] = linezolid combined with peptide at 16 μg/ml
[17] = linezolid combined with peptide at 32 μg/ml
[18] = linezolid combined with peptide at 64 μg/ml
[19] = vancomycin combined with peptide at 1 μg/ml
[20] = vancomycin combined with peptide at 2 μg/ml
[21] = vancomycin combined with peptide at 4 μg/ml
[22] = vancomycin combined with peptide at 6 μg/ml
[23] = vancomycin combined with peptide at 8 μg/ml
[24] = vancomycin combined with peptide at 16 μg/ml
[25] = vancomycin combined with peptide at 32 μg/ml
[26] = vancomycin combined with peptide at 64 μg/ml
[27] = combined with peptide at 1 μg/ml
[28] = combined with peptide at 2 μg/ml
[29] = combined with peptide at 4 μg/ml
[30] = combined with peptide at 6 μg/ml
[31] = combined with peptide at 8 μg/ml
[32] = combined with peptide at 16 μg/ml
[33] = combined with peptide at 32 μg/ml
[34] = combined with peptide at 64 μg/ml

SMILES: CC[C@H](C)[C@H](NC(=O)[C@H](CCCCN)NC(=O)[C@H](Cc1c[nH]c2ccccc12)NC(=O)[C@@H](N)CCCNC(=N)N)C(=O)N[C@@H](Cc1ccccc1)C(=O)N[C@@H](CCCCN)C(=O)N[C@@H](CCCCN)C(=O)N[C@H](C(=O)N[C@H](CCCCN)C(=O)N[C@@H](CCCCN)C(=O)N[C@@H](CC(C)C)C(=O)N[C@@H](CC(C)C)C(=O)N[C@@H](Cc1c[nH]cn1)C(=O)N[C@@H](CCCCN)C(=O)N[C@@H](C)C(=O)N[C@@H](CCCCN)C(=O)N[C@@H](CCCCN)C(=O)N[C@@H](Cc1c[nH]c2ccccc12)C(N)=O)[C@@H](C)CC [PapMA-18, RWK IFK KIk KLL HKA KKW-NH2] (H-RWKIFKKI[dK]KLLHKAKKW-NH2; N-terminus assumed)
- Synergistic effect of antibacterial activity with existing antibiotics compared with PapMA-1 (E. coli [1]): higher level than the PapMA-1 peptide
- Antibiotic MIC, Erythromycin (E. coli [1]; [3]): 128 µg/mL
- Antibiotic MIC, Erythromycin (E. coli [1]; [4]): 32 µg/mL
- Antibiotic MIC, Erythromycin (E. coli [1]; [5]): 8 µg/mL
- Antibiotic MIC, Erythromycin (E. coli [1]; [6]): 1 µg/mL
- Antibiotic MIC, Erythromycin (E. coli [1]; [7]): 1 µg/mL
- Antibiotic MIC, Erythromycin (E. coli [1]; [8]): 0.25 µg/mL
- Antibiotic MIC, Erythromycin (E. coli [1]; [9]): 0.125 µg/mL
- Antibiotic MIC, Erythromycin (E. coli [1]; [10]): 0 µg/mL
- Antibiotic MIC, Linezolid (E. coli [1]; [11]): >128 µg/mL
- Antibiotic MIC, Linezolid (E. coli [1]; [12]): >128 µg/mL
- Antibiotic MIC, Linezolid (E. coli [1]; [13]): 64 µg/mL
- Antibiotic MIC, Linezolid (E. coli [1]; [14]): 16 µg/mL
- Antibiotic MIC, Linezolid (E. coli [1]; [15]): 8 µg/mL
- Antibiotic MIC, Linezolid (E. coli [1]; [16]): 8 µg/mL
- Antibiotic MIC, Linezolid (E. coli [1]; [17]): 4 µg/mL
- Antibiotic MIC, Linezolid (E. coli [1]; [18]): 0 µg/mL
- Antibiotic MIC, Vancomycin (E. coli [1]; [19]): >128 µg/mL
- Antibiotic MIC, Vancomycin (E. coli [1]; [20]): >128 µg/mL
- Antibiotic MIC, Vancomycin (E. coli [1]; [21]): >128 µg/mL
- Antibiotic MIC, Vancomycin (E. coli [1]; [22]): 32 µg/mL
- Antibiotic MIC, Vancomycin (E. coli [1]; [23]): 16 µg/mL
- Antibiotic MIC, Vancomycin (E. coli [1]; [24]): 8 µg/mL
- Antibiotic MIC, Vancomycin (E. coli [1]; [25]): 4 µg/mL
- Antibiotic MIC, Vancomycin (E. coli [1]; [26]): 0 µg/mL
- Minimal inhibitory concentration MIC (E. coli [2]): 64 µg/mL (≈ 26.9 µM)
- Minimal inhibitory concentration MIC (MDREC 1229): 64 µg/mL (≈ 26.9 µM)
- Peptide MIC, peptide alone (MDREC 1229): 64 µg/mL
- Minimal inhibitory concentration MIC (MDRST 8009): 64 µg/mL (≈ 26.9 µM)
- Antibiotic MIC, Erythromycin (A. baumannii; [27]): 32 µg/mL
- Antibiotic MIC, Linezolid (A. baumannii; [27]): >128 µg/mL
- Antibiotic MIC, Vancomycin (A. baumannii; [27]): >128 µg/mL
- Antibiotic MIC, Erythromycin (A. baumannii; [28]): 32 µg/mL
- Antibiotic MIC, Linezolid (A. baumannii; [28]): 128 µg/mL
- Antibiotic MIC, Vancomycin (A. baumannii; [28]): >128 µg/mL
- Antibiotic MIC, Erythromycin (A. baumannii; [29]): 16 µg/mL
- Antibiotic MIC, Linezolid (A. baumannii; [29]): 64 µg/mL
- Antibiotic MIC, Vancomycin (A. baumannii; [29]): 128 µg/mL
- Antibiotic MIC, Erythromycin (A. baumannii; [30]): 2 µg/mL
- Antibiotic MIC, Linezolid (A. baumannii; [30]): 32 µg/mL
- Antibiotic MIC, Vancomycin (A. baumannii; [30]): 32 µg/mL
- Antibiotic MIC, Erythromycin (A. baumannii; [31]): 1 µg/mL
- Antibiotic MIC, Linezolid (A. baumannii; [31]): 16 µg/mL
- Antibiotic MIC, Vancomycin (A. baumannii; [31]): 16 µg/mL
- Antibiotic MIC, Erythromycin (A. baumannii; [32]): 0.5 µg/mL
- Antibiotic MIC, Linezolid (A. baumannii; [32]): 4 µg/mL
- Antibiotic MIC, Vancomycin (A. baumannii; [32]): 16 µg/mL
- Antibiotic MIC, Erythromycin (A. baumannii; [33]): 0 µg/mL
- Antibiotic MIC, Linezolid (A. baumannii; [33]): 0 µg/mL
- Antibiotic MIC, Vancomycin (A. baumannii; [33]): 0 µg/mL
- Antibiotic MIC, Erythromycin (A. baumannii; [34]): 0 µg/mL
- Antibiotic MIC, Linezolid (A. baumannii; [34]): 0 µg/mL
- Antibiotic MIC, Vancomycin (A. baumannii; [34]): 0 µg/mL

SMILES: CC[C@H](C)[C@H](NC(=O)[C@H](CCCCN)NC(=O)[C@H](Cc1c[nH]c2ccccc12)NC(=O)[C@@H](N)CCCNC(=N)N)C(=O)N[C@@H](Cc1ccccc1)C(=O)N[C@@H](CCCCN)C(=O)N[C@@H](CCCCN)C(=O)N[C@H](C(=O)N1CCC[C@H]1C(=O)N[C@@H](CCCCN)C(=O)N[C@@H](Cc1ccccc1)C(=O)N[C@@H](CC(C)C)C(=O)N[C@@H](Cc1c[nH]cn1)C(=O)N[C@@H](CO)C(=O)N[C@@H](Cc1ccccc1)C(=O)N[C@@H](CCCCN)C(=O)N[C@@H](CCCCN)C(=O)N[C@@H](Cc1ccccc1)C(N)=O)[C@@H](C)CC [PapMA-5, RWK IFK KIP KFL HSF KKF-NH2] (H-RWKIFKKIPKFLHSFKKF-NH2; N-terminus assumed)
- Synergistic effect of antibacterial activity with existing antibiotics compared with PapMA-1 (E. coli [1]): level similar to that of the PapMA-1 peptide
- Antibiotic MIC, Erythromycin (E. coli [1]; [3]): 128 µg/mL
- Antibiotic MIC, Erythromycin (E. coli [1]; [4]): 64 µg/mL
- Antibiotic MIC, Erythromycin (E. coli [1]; [5]): 32 µg/mL
- Antibiotic MIC, Erythromycin (E. coli [1]; [6]): 8 µg/mL
- Antibiotic MIC, Erythromycin (E. coli [1]; [7]): 2 µg/mL
- Antibiotic MIC, Erythromycin (E. coli [1]; [8]): 0.5 µg/mL
- Antibiotic MIC, Erythromycin (E. coli [1]; [9]): 0.5 µg/mL
- Antibiotic MIC, Erythromycin (E. coli [1]; [10]): 0 µg/mL
- Antibiotic MIC, Linezolid (E. coli [1]; [11]): >128 µg/mL
- Antibiotic MIC, Linezolid (E. coli [1]; [12]): 128 µg/mL
- Antibiotic MIC, Linezolid (E. coli [1]; [13]): 64 µg/mL
- Antibiotic MIC, Linezolid (E. coli [1]; [14]): 32 µg/mL
- Antibiotic MIC, Linezolid (E. coli [1]; [15]): 16 µg/mL
- Antibiotic MIC, Linezolid (E. coli [1]; [16]): 8 µg/mL
- Antibiotic MIC, Linezolid (E. coli [1]; [17]): 2 µg/mL
- Antibiotic MIC, Linezolid (E. coli [1]; [18]): 0 µg/mL
- Antibiotic MIC, Vancomycin (E. coli [1]; [19]): >128 µg/mL
- Antibiotic MIC, Vancomycin (E. coli [1]; [20]): >128 µg/mL
- Antibiotic MIC, Vancomycin (E. coli [1]; [21]): 128 µg/mL
- Antibiotic MIC, Vancomycin (E. coli [1]; [22]): 64 µg/mL
- Antibiotic MIC, Vancomycin (E. coli [1]; [23]): 32 µg/mL
- Antibiotic MIC, Vancomycin (E. coli [1]; [24]): 8 µg/mL
- Antibiotic MIC, Vancomycin (E. coli [1]; [25]): 2 µg/mL
- Antibiotic MIC, Vancomycin (E. coli [1]; [26]): 0 µg/mL
- Minimal inhibitory concentration MIC (E. coli [2]): 64 µg/mL (≈ 26.9 µM)
- Minimal inhibitory concentration MIC (MDREC 1229): 64 µg/mL (≈ 26.9 µM)
- Minimal inhibitory concentration MIC (MDRST 8009): 64 µg/mL (≈ 26.9 µM)
- Synergistic effect of antibacterial activity with existing antibiotics compared with PapMA-1 (A. baumannii; A. baumannii and MDRAB 12035): level similar to that of PapMA-1 peptide
- Antibiotic MIC, Erythromycin (A. baumannii; [27]): 32 µg/mL
- Antibiotic MIC, Linezolid (A. baumannii; [27]): 128 µg/mL
- Antibiotic MIC, Vancomycin (A. baumannii; [27]): >128 µg/mL
- Antibiotic MIC, Erythromycin (A. baumannii; [28]): 16 µg/mL
- Antibiotic MIC, Linezolid (A. baumannii; [28]): 64 µg/mL
- Antibiotic MIC, Vancomycin (A. baumannii; [28]): >128 µg/mL
- Antibiotic MIC, Erythromycin (A. baumannii; [29]): 8 µg/mL
- Antibiotic MIC, Linezolid (A. baumannii; [29]): 16 µg/mL
- Antibiotic MIC, Vancomycin (A. baumannii; [29]): 32 µg/mL
- Antibiotic MIC, Erythromycin (A. baumannii; [30]): 4 µg/mL
- Antibiotic MIC, Linezolid (A. baumannii; [30]): 8 µg/mL
- Antibiotic MIC, Vancomycin (A. baumannii; [30]): 16 µg/mL
- Antibiotic MIC, Erythromycin (A. baumannii; [31]): 0.5 µg/mL
- Antibiotic MIC, Linezolid (A. baumannii; [31]): 4 µg/mL
- Antibiotic MIC, Vancomycin (A. baumannii; [31]): 8 µg/mL
- Antibiotic MIC, Erythromycin (A. baumannii; [32]): 0.25 µg/mL
- Antibiotic MIC, Linezolid (A. baumannii; [32]): 4 µg/mL
- Antibiotic MIC, Vancomycin (A. baumannii; [32]): 4 µg/mL
- Antibiotic MIC, Erythromycin (A. baumannii; [33]): 0.125 µg/mL
- Antibiotic MIC, Linezolid (A. baumannii; [33]): 2 µg/mL
- Antibiotic MIC, Vancomycin (A. baumannii; [33]): 2 µg/mL
- Antibiotic MIC, Erythromycin (A. baumannii; [34]): 0 µg/mL
- Antibiotic MIC, Linezolid (A. baumannii; [34]): 0 µg/mL
- Antibiotic MIC, Vancomycin (A. baumannii; [34]): 0 µg/mL
